{"source": "PubChem BioAssay AID2060485", "about": "(Molecular Pharmacology Branch, DTP, NCI, 2025)", "system": "A375 multi-cell spheroids with HUVEC/MSC, viability", "assay": "Anticancer human tumor A375 cell line growth inhibition [GQUAD];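 on all read-outs here: spheroids exposed to compounds for seven days before readout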", "conditions": "for IC50: curve of first compound; for viability, T/C: stronger effect = lower value", "how_it_was_run": "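Multi-cell-type spheroids of tumor cells with HUVEC and mesenchymal stem cells, treated with drug combinations. Concentrations descend in half-log steps from near clinical Cmax, or from 10 microM where Cmax is unknown; viability read-out.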", "data": [{"smiles": "COc1cc(C2c3cc4c(cc3C(OC3OC5COC(C)OC5C(O)C3O)C3COC(=O)C23)OCO4)cc(OC)c1O", "note": "(configuration not stated) + Cc1cnc(CNC(=O)c2c(=O)c3ccc(N4CCCN(C)CC4)nc3n3c2sc2ccccc23)cn1", "values": [{"measurement": "IC50", "setting": "second compound 0.0316 µM", "value": 656, "unit": "nM"}, {"measurement": "IC50", "setting": "second compound 0.1 µM", "value": 213, "unit": "nM"}, {"measurement": "IC50", "setting": "second compound 0.316 µM", "value": "< 31.6", "unit": "nM"}, {"measurement": "IC50", "setting": "second compound 1 µM", "value": "< 31.6", "unit": "nM"}, {"measurement": "IC50", "setting": "second compound 3.16 µM", "value": "< 31.6", "unit": "nM"}, {"measurement": "IC50", "setting": "second compound 10 µM", "value": "< 31.6", "unit": "nM"}, {"measurement": "viability, T/C", "setting": "second compound 0.0316 µM, first compound 0.0316 µM", "value": 110, "unit": "%"}, {"measurement": "viability, T/C", "setting": "second compound 0.0316 µM, first compound 0.1 µM", "value": 90.6, "unit": "%"}, {"measurement": "viability, T/C", "setting": "second compound 0.0316 µM, first compound 0.316 µM", "value": 65.6, "unit": "%"}, {"measurement": "viability, T/C", "setting": "second compound 0.0316 µM, first compound 1 µM", "value": 40.7, "unit": "%"}, {"measurement": "viability, T/C", "setting": "second compound 0.0316 µM, first compound 3.16 µM", "value": 27.4, "unit": "%"}, {"measurement": "viability, T/C", "setting": "second compound 0.0316 µM, first compound 10 µM", "value": 20.2, "unit": "%"}, {"measurement": "viability, T/C", "setting": "second compound 0.1 µM, first compound 0.0316 µM", "value": 73.6, "unit": "%"}, {"measurement": "viability, T/C", "setting": "second compound 0.1 µM, first compound 0.1 µM", "value": 59.8, "unit": "%"}, {"measurement": "viability, T/C", "setting": "second compound 0.1 µM, first compound 0.316 µM", "value": 43.6, "unit": "%"}, {"measurement": "viability, T/C", "setting": "second compound 0.1 µM, first compound 1 µM", "value": 33.5, "unit": "%"}, {"measurement": "viability, T/C", "setting": "second compound 0.1 µM, first compound 3.16 µM", "value": 25.8, "unit": "%"}, {"measurement": "viability, T/C", "setting": "second compound 0.1 µM, first compound 10 µM", "value": 14.7, "unit": "%"}, {"measurement": "viability, T/C", "setting": "second compound 0.316 µM, first compound 0.0316 µM", "value": 48.3, "unit": "%"}, {"measurement": "viability, T/C", "setting": "second compound 0.316 µM, first compound 0.1 µM", "value": 50.2, "unit": "%"}, {"measurement": "viability, T/C", "setting": "second compound 0.316 µM, first compound 0.316 µM", "value": 37.8, "unit": "%"}, {"measurement": "viability, T/C", "setting": "second compound 0.316 µM, first compound 1 µM", "value": 32.4, "unit": "%"}, {"measurement": "viability, T/C", "setting": "second compound 0.316 µM, first compound 3.16 µM", "value": 22.1, "unit": "%"}, {"measurement": "viability, T/C", "setting": "second compound 0.316 µM, first compound 10 µM", "value": 14.3, "unit": "%"}, {"measurement": "viability, T/C", "setting": "second compound 1 µM, first compound 0.0316 µM", "value": 40.1, "unit": "%"}, {"measurement": "viability, T/C", "setting": "second compound 1 µM, first compound 0.1 µM", "value": 38.6, "unit": "%"}, {"measurement": "viability, T/C", "setting": "second compound 1 µM, first compound 0.316 µM", "value": 30.6, "unit": "%"}, {"measurement": "viability, T/C", "setting": "second compound 1 µM, first compound 1 µM", "value": 30.7, "unit": "%"}, {"measurement": "viability, T/C", "setting": "second compound 1 µM, first compound 3.16 µM", "value": 22.3, "unit": "%"}, {"measurement": "viability, T/C", "setting": "second compound 1 µM, first compound 10 µM", "value": 15.3, "unit": "%"}, {"measurement": "viability, T/C", "setting": "second compound 3.16 µM, first compound 0.0316 µM", "value": 34, "unit": "%"}, {"measurement": "viability, T/C", "setting": "second compound 3.16 µM, first compound 0.1 µM", "value": 32.5, "unit": "%"}, {"measurement": "viability, T/C", "setting": "second compound 3.16 µM, first compound 0.316 µM", "value": 31, "unit": "%"}, {"measurement": "viability, T/C", "setting": "second compound 3.16 µM, first compound 1 µM", "value": 26, "unit": "%"}, {"measurement": "viability, T/C", "setting": "second compound 3.16 µM, first compound 3.16 µM", "value": 23.4, "unit": "%"}, {"measurement": "viability, T/C", "setting": "second compound 3.16 µM, first compound 10 µM", "value": 13.9, "unit": "%"}, {"measurement": "viability, T/C", "setting": "second compound 10 µM, first compound 0.0316 µM", "value": 29.2, "unit": "%"}, {"measurement": "viability, T/C", "setting": "second compound 10 µM, first compound 0.1 µM", "value": 28.1, "unit": "%"}, {"measurement": "viability, T/C", "setting": "second compound 10 µM, first compound 0.316 µM", "value": 31.8, "unit": "%"}, {"measurement": "viability, T/C", "setting": "second compound 10 µM, first compound 1 µM", "value": 27.3, "unit": "%"}, {"measurement": "viability, T/C", "setting": "second compound 10 µM, first compound 3.16 µM", "value": 21, "unit": "%"}, {"measurement": "viability, T/C", "setting": "second compound 10 µM, first compound 10 µM", "value": 13.4, "unit": "%"}]}]}
